# Measured values from PMC12514245, “Impaired migration and lung invasion of human melanoma by a novel small molecule targeting the transmembrane domain of death receptor p75^NTR” (EMBO Molecular Medicine, 2025).
# Values joined by “and” are separate entries in the source; they are usually repeats but may differ in a detail not shown here. Equal entries are not always repeated. Where two headings read alike, the source gives them in different places.
# What was measured:
# A875 NT cells = experiment: Cell viability (Presto Blue), A875 NT; type: cell-based, human
# Experimental: (§1) To measure the cytotoxic effect of Div17E5, A875 NT or shp75 cells were seeded at 2000 cells per well (in 100 μL DMEM) in a 96-well plate and incubated for 12 h. Next, Div17E5 at various concentrations was added and incubated at 37 °C in 5% CO2 for 2 days. Following treatment, 10 μL Presto Blue® (resazurin, ThermoFIsher) was added to each well of the 96-well plate and incubated for 2 h at 37 °C in 5% CO2. Cellular fluorescence in each well was measured at 535 nm excitation and 615 nm emission using a microtiter plate reader. Data was converted into the relative cell viability (%) from the fluorescence of cells in each treatment relative to that of the DMSO control group (set as 100%).
# [1] = Cell viability (Presto Blue), A875 NT; type: cell-based, human; conditions: human, A875 NT cells, 2 days; for viability at 2 days, 1 uM: Div17E5 1 uM; for viability at 2 days, 1.5 uM: Div17E5 1.5 uM
# Experimental: as §1
# A875 shp75 cells = experiment: Cell viability (Presto Blue), A875 shp75; type: cell-based, human; conditions: for viability at 5 µM: Div17E5 5 uM
# Experimental: as §1
# [2] = Cell viability (Presto Blue), A875 shp75; type: cell-based, human; conditions: human, A875 shp75 cells, 2 days; for viability at 2 days, 1 uM: Div17E5 1 uM; for viability at 2 days, 1.5 uM: Div17E5 1.5 uM
# Experimental: as §1
# [3] = system: fascin in Triton-insoluble fraction of A875 NT cells; experiment: Detergent-insolubility assay of fascin, A875 NT; type: cell-based, human; conditions: for Fold change (compared to untreated cells): insoluble/total fascin
# Experimental: A single cell suspension was obtained by trypsinization followed by centrifugation and detergent extraction with lysis buffer (with 0.5% Triton X-100). Then, immediately centrifuged at 8700 g for 3 min. The resulting pellets (containing the Triton X-100-resistant proteins) were suspended in lysis buffer without Triton X-100. In parallel, cells were centrifuged and then directly suspended in lysis buffer. The Triton X-100- resistant proteins and total cell lysates were analyzed by SDS–PAGE and Western blotting with anti-fascin antibody.
# human 70W cells = experiment: Lung invasion after intravenous injection of 70W cells; conditions: 70W cells lose p75ntr expression in vivo
# Experimental: A875 NT cells that both wound areas decreased from 1 to ~0.75 in 24 hours. But in […]
# Do the in vitro assays recapitulate melanoma invasiveness? If not, is it possible the ideal compounds were missed from the screening in melanoma cells (Figure 6)? […] This assay simply scores the relative orientation/conformation of the interacting receptor TMDs in isolation form the rest of the receptor. The wound healing assay is a rather simplistic assay of cell motility. The in vitro assay that better recapitulates what may happen in vivo is the Boyden chamber migration/invasion assay.
# 2. In Figure 7A, co-IP experiment requires input and IgG control to show positivity and specificity. In Figure 7B, quantification using the ratio of Triton-insoluble fascin to total fascin will be much more solid than only showing the western blot.
# The input control was added in 7A and quantification in 7B (also in 7A).
# "NGF treatment strongly stimulated the association of fascin with p75NTR".
# The labels in the Western blot shown in this panel were incorrect. They have now been […]
# 4. Validation of results in another human cell line
# During the past year, multiple tests were done by intravenous injection of human 70W cells, […]
# followed by monitoring cells in the lungs in the presence and absence of drug treatment. […]
# in vivo environment. […]
# [4] = Homo sapiens, A875, 48 h, Div17E5 2 uM, 2 days, read-out: Cell Viability, n1-n3
# [5] = Homo sapiens, A875, 48 h, Div17E5 2.5 uM, 2 days, N=3, read-out: Cell Viability, Mean
# [6] = Homo sapiens, A875, 48 h, Div17E5 2.5 uM, 2 days, read-out: Cell Viability, n1-n3
# [7] = Homo sapiens, A875, 48 h, Div17E5 7.5 uM, 2 days, N=3, read-out: Cell Viability, Mean
# [8] = Homo sapiens, A875, 48 h, Div17E5 7.5 uM, 2 days, read-out: Cell Viability, n1-n3
# [9] = Homo sapiens, A875, 48 h, Div17E5 10 uM, 2 days, read-out: Cell Viability, n1-n3
# [10] = N=3, read-out: Cell Viability, Mean
# [11] = read-out: Cell Viability, n1-n3
smiles,measurement,setting,value
Oc1ccc(-c2cncc(Nc3ccc(Br)c(Cl)c3)n2)cc1 [Div17E5],"Cell Viability, n1-n3","A875 NT cells; Div17E5 0.5 uM, 2 days",76%
same,"Cell Viability, n1-n3","A875 NT cells; Div17E5 1 uM, 2 days",69% and 80%
same,"Cell Viability, n1-n3","A875 NT cells; Div17E5 1.5 uM, 2 days",66%
same,"Cell Viability, n1-n3","A875 NT cells; Div17E5 2.5 uM, 2 days",61% and 52%
same,"Cell Viability, n1-n3","A875 NT cells; Div17E5 5 uM, 2 days",51% and 57%
same,"Cell Viability, n1-n3","A875 NT cells; Div17E5 7.5 uM, 2 days",44% and 51%
same,"Cell Viability, n1-n3","A875 NT cells; Div17E5 10 uM, 2 days",39% and 42%
same,viability at 0.5 µM,"A875 NT cells; Homo sapiens, A875, 48 h, Div17E5 0.5 uM, 2 days, read-out: Cell Viability, n1-n3",85%
same,viability at 2 µM,A875 NT cells; [4],67%
same,viability at 2.5 µM,A875 NT cells; [5],59%
same,viability at 2.5 µM,A875 NT cells; [6],65%
same,viability at 5 µM,"A875 NT cells; Homo sapiens, A875, 48 h, Div17E5 5 uM, 2 days, N=3, read-out: Cell Viability, Mean",55%
same,viability at 5 µM,"A875 NT cells; Homo sapiens, A875, 48 h, Div17E5 5 uM, 2 days, read-out: Cell Viability, n1-n3",58%
same,viability at 7.5 µM,A875 NT cells; [7],50%
same,viability at 7.5 µM,A875 NT cells; [8],55%
same,viability at 10 µM,A875 NT cells; [9],49%
same,cell viability,A875 NT cells; above 10 μM,sensitive
same,cell viability,A875 NT cells; dose-dependent,decreased viability
same,"viability at 2 days, 0.5 uM","[1]; Div17E5 0.5 uM, N=3",79%
same,"viability at 2 days, 1 uM",[1]; [10],75%
same,"viability at 2 days, 1 uM",[1]; [11],77%
same,"viability at 2 days, 1.5 uM",[1]; [10],65%
same,"viability at 2 days, 1.5 uM",[1]; [11],71%
same,"Cell Viability, n1-n3","A875 shp75 cells; Div17E5 0.5 uM, 2 days",104%
same,"Cell Viability, n1-n3","A875 shp75 cells; Div17E5 1 uM, 2 days",109% and 112%
same,"Cell Viability, n1-n3","A875 shp75 cells; Div17E5 1.5 uM, 2 days",100%
same,"Cell Viability, n1-n3","A875 shp75 cells; Div17E5 2 uM, 2 days",96% and 100%
same,"Cell Viability, n1-n3","A875 shp75 cells; Div17E5 2.5 uM, 2 days",90% and 99%
same,"Cell Viability, n1-n3","A875 shp75 cells; Div17E5 7.5 uM, 2 days",81% and 91%
same,"Cell Viability, n1-n3","A875 shp75 cells; Div17E5 10 uM, 2 days",90% and 78%
same,viability at 0.5 µM,"A875 shp75 cells; Homo sapiens, A875, 48 h, Div17E5 0.5 uM, 2 days, N=3",103%
same,viability at 2 µM,"A875 shp75 cells; Homo sapiens, A875, 48 h, Div17E5 2 uM, 2 days, N=3, read-out: Cell Viability, Mean",101%
same,viability at 2 µM,A875 shp75 cells; [4],107%
same,viability at 2.5 µM,A875 shp75 cells; [5],92%
same,viability at 2.5 µM,A875 shp75 cells; [6],86%
same,viability at 5 µM,"A875 shp75 cells; Homo sapiens, A875, 48 h, 2 days, N=3, read-out: Cell Viability, Mean",93%
same,viability at 5 µM,"A875 shp75 cells; Homo sapiens, A875, 48 h, 2 days, read-out: Cell Viability, n1-n3",101%
same,viability at 7.5 µM,A875 shp75 cells; [7],86%
same,viability at 7.5 µM,A875 shp75 cells; [8],85%
same,viability at 10 µM,"A875 shp75 cells; Homo sapiens, A875, 48 h, Div17E5 10 uM, 2 days, N=3, read-out: Cell Viability, Mean",84%
same,viability at 10 µM,A875 shp75 cells; [9],85%
same,cell viability,A875 shp75 cells; above 10 μM,sensitive
same,cell viability,A875 shp75 cells; doses up to 10 μM,largely refractory
same,"viability at 2 days, 0.5 uM","[2]; Div17E5 0.5 uM, read-out: Cell Viability, n1-n3",101%
same,"viability at 2 days, 1 uM",[2]; [10],107%
same,"viability at 2 days, 1 uM",[2]; [11],101%
same,"viability at 2 days, 1.5 uM",[2]; [10],103%
same,"viability at 2 days, 1.5 uM",[2]; [11],107%
Cc1cccc(-c2cncc(Nc3ccc(Br)c(Cl)c3Cl)n2)c1C [Np75-4A22],Toral fascin without background,"[3]; 1 μM 4A22, band OD, n1-n3",39995.1 and 74813.2 and 39347.1
same,Fold change (compared to untreated cells),"[3]; 1 μM 4A22, n1-n3",0.751 and 0.708 and 0.695
same,NGF-increased fascin in detergent insoluble fraction,"[3]; 1 μM, NGF 100 ng/ml",blocked this effect
same,Fold change (compared to untreated cells),"[3]; NGF + 1 μM 4A22, n1-n3",0.947 and 0.577 and 0.569
same,number of metastasized 70W cells in the lungs,human 70W cells,had no effect on the number of metastasized cells
